Source: patent publication US20240408096A1, “DOSING REGIMENS FOR ORAL ALK2 KINASE INHIBITORS” (BioCryst Pharmaceuticals, Inc., priority 2020, published 2024)
“Also recorded” adds a separate entry of the source.

What was measured:
[1] = safety pharmacology studies (CNS, respiratory, cardiovascular); format: in vivo; settings: HEDs exceeding likely human daily clinical dose ranges (5 to 200 mg)
[2] = ECG / QTc after oral administration to dogs; format: in vivo, dog; settings: HEDs up to 667 mg based on a 60 kg subject
[3] = nonclinical PK / toxicokinetic assessments; format: in vivo
[4] = plasma protein binding, monkey; format: in vitro ADME; settings: in vitro
[5] = plasma protein binding, human; format: in vitro ADME; settings: in vitro
[6] = biological target: T1, cytochrome P450 (CYP)1A2 (Homo sapiens, UniProt P05177); test: CYP inhibition in vitro; format: in vitro ADME
T1 sequence (P05177 1-516): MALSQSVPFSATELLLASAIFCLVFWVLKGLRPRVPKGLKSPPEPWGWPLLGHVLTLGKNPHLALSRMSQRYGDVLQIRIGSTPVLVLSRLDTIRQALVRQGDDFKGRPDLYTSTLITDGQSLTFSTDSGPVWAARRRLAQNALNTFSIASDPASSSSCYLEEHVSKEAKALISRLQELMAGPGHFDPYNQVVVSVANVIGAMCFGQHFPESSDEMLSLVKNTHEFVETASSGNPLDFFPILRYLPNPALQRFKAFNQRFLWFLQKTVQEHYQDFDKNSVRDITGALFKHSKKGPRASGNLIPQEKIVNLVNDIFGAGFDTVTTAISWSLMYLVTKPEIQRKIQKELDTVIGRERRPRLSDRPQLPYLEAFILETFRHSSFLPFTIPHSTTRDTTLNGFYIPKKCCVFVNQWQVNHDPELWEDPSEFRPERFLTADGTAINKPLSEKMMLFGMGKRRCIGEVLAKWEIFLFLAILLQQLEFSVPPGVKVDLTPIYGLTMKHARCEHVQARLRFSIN

[7] = Phase 1 Part 2 (MAD) plasma PK; format: in vivo, human; settings: for Cmax / AUC0-24 / Tmax / AUCtau / Ctau / t1/2: Part 2 MAD; for Cmax / AUC0-24 / AUCtau / Ctau: geometric mean (CV%); for Tmax / t1/2: median (min, max)
Protocol: Four sequential MAD cohorts were dosed.
For each cohort of Part 2, the daily dose of study drug was administered as a single dose (1 time daily or QD). Similar to Part 1 of the study, following a screening period to determine eligibility, subjects in each cohort entered the CRU on the […] of Day −1. Study eligibility was re-confirmed upon admission to the CRU, and subjects remained in the CRU overnight prior to dosing on Day 1. Subjects received a final morning dose of study drug on the last day of dosing. Subjects were discharged from the CRU following sample collection on Day 11. Dosage administration was supervised by study personnel and all subjects completed dosing per protocol. […] Subjects returned to the CRU on Day 23 (+2 days) for final follow-up safety assessments.
Serial venous blood samples were withdrawn via an indwelling cannula or by venipuncture according to the schedule in Tables 4 and 5 for Parts 1 and 2, respectively. Samples were collected into 4 mL lithium heparin tubes. The acceptable deviations from the nominal blood sampling times in Part 1 and Part 2 are as follows: the pre-dose blood sample will be taken ≤1 hour before dosing; 0 to 1 hour post-dose samples will be taken within +2 minutes of the nominal post-dose sampling time; >1 to 12 hours post-dose samples will be taken within +10 minutes of the nominal post-dose sampling time; and >12 hours post-dose samples will be taken within +30 minutes of the nominal post-dose sampling time if subjects are resident in the clinic. […]
In all derivations of PK parameters, 0 will be substituted for concentrations below the quantification limit (BQL) of the assay. Samples that are BQL but are between 2 samples with detectable concentrations will be excluded from PK analysis.
Dose proportionality was evaluated over all fasted doses within a study part based upon AUC0-inf (Part 1), AUCtau (Part 2), AUC0-t, and Cmax using the power model. The analysis was performed for Day 1 (Parts 1 and 2) and Day 7 (Part 2).
Dose proportionality for PK parameters was assessed by restricted maximum likelihood using SAS PROC MIXED (SAS STAT software, Cary N.C.). The mean slope was estimated from the power model and the corresponding 90% confidence interval (CI) calculated. Dose proportionality was also examined using an analysis of variance (ANOVA) method, where PK parameters for each dose were compared with a reference dose on a pair-wise basis. The ratio of geometric least squares (GLS) means and the corresponding 90% CI was estimated for each PK parameter of interest.
Accumulation ratios were calculated using AUC values from serial sampling after the first and last dose in Part 2. […] A mixed-effects model with a fixed effect for day and a random subject effect was used to estimate the difference between AUCtau and AUC0-t on the log scale.
Time to steady-state was evaluated in Part 2 using Ctrough (observed plasma concentration immediately before dosing) levels, where sufficient samples existed to determine steady state. The following timepoints were used in the analysis for once daily dosing: 24, 48, and 72 hours post dose (for Day 1) and pre-dose and 24 hours post dose on the last day of dosing (Day 7).

Compound: COc1cc(-n2cnc(Nc3nc(N4CCC[C@H]4C(N)=O)nc4sccc34)c2)cc(OC)c1OC.O=C(O)CC(O)(CC(=O)O)C(=O)O [Compound A]
- adverse central nervous system, respiratory, or cardiovascular issues [1]: no adverse central nervous system, respiratory, or cardiovascular issues
- prolongation of corrected QT interval (QTc) or other ECG changes [2]: did not induce prolongation of corrected QT interval (QTc)
- oral bioavailability ([3]; nonclinical PK studies): orally bioavailable
- accumulation with repeated dosing ([3]; repeated dosing up to 28 days, toxicokinetic assessments): do not accumulate
- plasma protein binding [4]: ≥ 99.9%
- plasma protein binding [5]: ≥ 99.9%
- CYP1A2 inhibition [6]: not an inhibitor
- Day 1 AUC0-24, geometric least square mean ([7]; 5 mg QD): 797.89 ng·h/mL
- Day 7 AUCtau, geometric least square mean ([7]; 5 mg QD): 915.48 ng·h/mL
- Day 1 AUC0-24, geometric least square mean ([7]; 10 mg QD): 1703.36 ng·h/mL
- Day 7 AUCtau, geometric least square mean ([7]; 10 mg QD): 2022.93 ng·h/mL
- Day 1 AUC0-24, geometric least square mean ([7]; 15 mg QD): 2204.47 ng·h/mL
- Day 7 AUCtau, geometric least square mean ([7]; 15 mg QD): 2303.26 ng·h/mL
- Day 1 AUC0-24, geometric least square mean ([7]; 20 mg QD): 3159.74 ng·h/mL
- Day 7 AUCtau, geometric least square mean ([7]; 20 mg QD): 3184.88 ng·h/mL
- median Tmax ([7]; Part 2, Days 1 and 7, all dosing cohorts): approximately 2.0 hours
- time to steady state ([7]; Part 2, QD dosing, from trough concentrations): ≤ 3 days
- accumulation ([7]; Part 2, each MAD cohort, 7 days QD): No accumulation or minimal accumulation
- dose proportionality of plasma exposure ([7]; Part 2, multiple oral doses 5 to 20 mg, healthy subjects): exhibits dose proportionality; also recorded: approximately linear and dose proportional
- Cmax ([7]; Day 1, 5 mg QD oral, fasted): 105.0 (45.9) ng/ml
- AUC0-24 ([7]; Day 1, 5 mg QD): 797.9 (37.8) ng · h/mL
- Tmax ([7]; Day 1, 5 mg QD): 2.009 (1.01, 4.01) h
- Cmax ([7]; Day 1, 10 mg QD oral, fasted): 217.0 (46.2) ng/ml
- AUC0-24 ([7]; Day 1, 10 mg QD): 1703 (37.4) ng · h/mL
- Tmax ([7]; Day 1, 10 mg QD): 2.009 (2.01, 3.01) h
- Cmax ([7]; Day 1, 15 mg QD oral, fasted): 324.2 (34.9) ng/ml
- AUC0-24 ([7]; Day 1, 15 mg QD): 2204 (39.0) ng · h/mL
- Tmax ([7]; Day 1, 15 mg QD): 2.006 (1.01, 4.00) h
- Cmax ([7]; Day 1, 20 mg QD oral, fasted): 464.1 (26.1) ng/ml
- AUC0-24 ([7]; Day 1, 20 mg QD): 3160 (21.2) ng · h/mL
- Tmax ([7]; Day 1, 20 mg QD): 2.007 (2.00, 3.00) h
- AUCtau ([7]; Day 7, 5 mg QD): 915.5 (40.7) ng · h/mL
- Cmax ([7]; Day 7, 5 mg QD): 117.0 (44.4) ng/ml
- Ctau ([7]; Day 7, 5 mg QD): 10.70 (72.6) ng/ml
- Tmax ([7]; Day 7, 5 mg QD): 2.007 (1.01, 3.03) h
- t1/2 ([7]; Day 7, 5 mg QD): 8,846 (4.73, 25.1) h
- AUCtau ([7]; Day 7, 10 mg QD): 2023 (29.7) ng · h/mL
- Cmax ([7]; Day 7, 10 mg QD): 238.0 (22.6) ng/ml
- Ctau ([7]; Day 7, 10 mg QD): 25.47 (68.1) ng/ml
- Tmax ([7]; Day 7, 10 mg QD): 2.021 (2.01, 3.01) h
- t1/2 ([7]; Day 7, 10 mg QD): 8.512 (6.09, 12.3) h
- AUCtau ([7]; Day 7, 15 mg QD): 2303 (24.9) ng · h/mL
- Cmax ([7]; Day 7, 15 mg QD): 333.5 (29.7) ng/ml
- Ctau ([7]; Day 7, 15 mg QD): 19.02 (59.6) ng/ml
- Tmax ([7]; Day 7, 15 mg QD): 2.006 (1,01, 3.00) h
- t1/2 ([7]; Day 7, 15 mg QD): 7.534 (4.05, 12.2) h
- AUCtau ([7]; Day 7, 20 mg QD): 3185 (24.4) ng · h/mL
- Cmax ([7]; Day 7, 20 mg QD): 413.9 (14.9) ng/ml
- Ctau ([7]; Day 7, 20 mg QD): 30.75 (66.5) ng/ml
- Tmax ([7]; Day 7, 20 mg QD): 2.001 (1.00, 3.00) h
- t1/2 ([7]; Day 7, 20 mg QD): 8.332 (4.61, 11.0) h
- dose proportionality of steady state Cmax ([7]; Part 2 multiple ascending oral dose cohorts (FIG. 7)): approximately linear and dose-proportional
- dose proportionality of steady state AUCtau ([7]; Part 2 multiple ascending oral dose cohorts (FIG. 8)): approximately linear and dose-proportional
